Assays:
Assay type in all cases: cell-based, human
BMP4 3′UTR = BMP4 3′UTR luciferase reporter in ECs; conditions: vs untreated or scramble microRNA, n=6
Protocol: (§1) Plasmid constructs pcDNA3-ALK2^WT (Addgene #80870) and pcDNA3-ALK2^Q207D (Addgene #80871) were a gift from Aristidis Moustakas^7. (Meyer B, Schaller C, Frenkel C, Ebeling B, Schramm J. Distributions of local oxygen saturation and its response to changes of mean arterial blood pressure in the cerebral cortex adjacent to arteriovenous malformations. Stroke. 1999; 30(12):2623-2630) 10^4 AVM-BEC were seeded 24 h before transfection. The plasmid vector containing the 3′ untranslated region (3′UTR) of human BMP4, pRP [Exp]-Puro-CMV>Luciferase:{hBMP4_3′UTR}, was constructed and packaged by VectorBuilder. The vector ID is VB200205-1078zdv, which can be used to retrieve detailed information about the vector on vectorbuilder.com. Transient transfections were performed with Lipofectamine RNAiMax (Thermo Fisher Scientific) according to the manufacturer's instructions. After 4 h, medium was replaced by fresh medium containing microRNA.
For the experiments regarding the direct binding of miR-18a to BMP4 (information about the plasmid was included in Methods), the luciferase activity of the hBMP4 3′UTR was read in a Varioskan™ LUX multimode microplate reader (Thermo Fisher Scientific).

AVM-BEC [1] = assay: ELISA of AVM-BEC supernatants
From the text: Human surgical specimens were obtained following written informed consent from patients in accordance with Declaration of Helsinki guidelines and the Institutional Review Board (HS-04B053), at Keck School of Medicine, USC. AVM-BECs were isolated from brain tissues of patients who underwent microsurgical AVM resection. Control BECs were isolated from the structurally normal […] of patients who underwent temporal lobectomy for intractable epilepsy. Endothelial cell (EC) isolation and culture were described^5,9. (Stapleton C J, Armstrong D L, Zidovetzki R, Liu C Y, Giannotta S L, Hofman F M. Thrombospondin-1 modulates the angiogenic phenotype of human cerebral arteriovenous malformation endothelial cells. Neurosurgery. 2011; 68(5):1342-1353) (Ferreira R, Santos T, Amar A, et al. Argonaute-2 promotes miR-18a entry in human brain endothelial cells. J Am Heart Assoc. 2014; 3(3):e000968) ECs were only used between passages 3-5. Experiments were performed under shear flow conditions (12 dyn/cm^2) to reproduce arterial flow^6. (Ferreira R, Santos T, Amar A, et al. MicroRNA-18a improves human cerebral arteriovenous malformation endothelial cell function. Stroke. 2014; 45(1):293-297). For hypoxic experiments, cells were cultured in a Galaxy 48R (Eppendorf) incubator at 3% O2. MicroRNAs were co-administered with Ago-2 to increase the cellular uptake of miR-18a^9 (Ferreira R, Santos T, Amar A, et al. Argonaute-2 promotes miR-18a entry in human brain endothelial cells. J Am Heart Assoc. 2014; 3(3):e000968) (FIG. 9). Methods regarding cell treatments and transfections were included in Data.
Small interfering RNA transfection was performed as previously described^5. Briefly, ECs were transfected with small interfering RNA (siRNA) against ID1 or PAI-1 (Thermo Fisher Scientific), or small interfering control (Santa Cruz Biotechnology) constructs using Lipofectamine RNAiMax (Thermo Fisher Scientific) per the manufacturer's instructions. Knockdown of ID1 or PAI-1 was confirmed by quantitative real-time polymerase chain reaction as described^6 (FIG. 19). The sequences of the forward and reverse primers for ID1 and PAI-1 were included in Table 2.
as §1
MiR-18a (hsa-miR-18a-5p, 40 nM, Dharmacon) or a scramble microRNA (40 nM, Dharmacon) in nuclease-free water was added with argonaute 2 (Ago-2, 0.4 nM, Abcam) as the microRNA carrier and stabilizer^9. (Ferreira R, Santos T, Amar A, et al. Argonaute-2 promotes miR-18a entry in human brain endothelial cells. J Am Heart Assoc. 2014; 3(3):e000968). No transfection reagent was used with miR-18a or scramble microRNA treatments. Recombinant human TSP-1 (R&D Systems) stock solution was prepared in PBS and further diluted in culture medium to be used at a final concentration of 1000 ng/mL. Cells were treated during 24 h for mRNA and 48 h for protein expression studies. NEO100 (NeOnc Technologies) stock was prepared in DMSO and used immediately or stored at −20° C. […]

BEC = assay: Invasion assay, Matrigel-coated Boyden chamber, control BEC; conditions: P>0.9999
From the text: (§2) The chemoinvasion assay was described^14. (Marín-Ramos N I, Thein T Z, Cho H-Y, et al. NEO212 inhibits migration and invasion of glioma stem cells. Mol Cancer Ther. 2018; 17(3):625-637). Pictures were captured using an Eclipse 80i microscope (Nikon), and cells counted with ImageJ Software (NIH).

AVM-BEC [2] = assay: Invasion assay, Matrigel-coated Boyden chamber, AVM-BEC; conditions: overnight, P=0.0012
From the text: as §2

hsa-miR-18a-5p (UAGGUGCAUCUAGUGCAGAUAG; chemistry not given here; listed as Homo sapiens) [small non-coding RNA molecule involved in post-transcriptional regulation of gene expression; Dharmacon]
BMP4-3′-UTR-Luc activity (BMP4 3′UTR): significantly (P<0.001) decreased | VEGF levels (ELISA) (AVM-BEC [1]; ALK2^WT-transfected AVM-BEC, P=0.0030): decrease VEGF levels | levels of secreted TGF-β (ELISA) (AVM-BEC [1]; AVM-BEC supernatants, P>0.9999): not significantly changed | levels of secreted PAI-1 (AVM-BEC [1]; AVM-BEC supernatants, normoxia, vs scramble microRNA): decreased | levels of secreted VEGF (AVM-BEC [1]; AVM-BEC supernatants, normoxia, decrease only reached significance with miR-18a): decreased | VEGF levels (ELISA) (AVM-BEC [1]; AVM-BEC transfected with constitutively active ALK2^Q207D, P>0.9999): unable to decrease VEGF levels | levels of secreted VEGF (AVM-BEC [1]; AVM-BEC transfected with siCTL, P=0.0007 vs scramble): decreased | effects of miR-18a in the decrease of secreted VEGF levels (AVM-BEC [1]; AVM-BEC transfected with siPAI-1): lost | PAI-1 secretion (AVM-BEC [1]; AVM-BEC, hypoxia 3% oxygen): reduction of PAI-1 secretion caused by miR-18a was still observed | invasiveness (BEC): without affecting control BEC | invasiveness (AVM-BEC [2]): decreased
